Source: patent publication US20240103005A1, “N-ACRYLOYLINDOLES AND METHODS OF USE” (The University of Hong Kong, priority 2022, published 2024)

Tests used:
[1] = Stability in aqueous buffer solution over time (LC-MS); type: physicochemical
Experimental: Stability of NAIA-5 in Aqueous Buffer Solution Over Time
NAIA-5 (10 μM) was dissolved in PBS/MeOH solution mixture (4:1, v/v; 500 μL) and stay at room temperature. At predetermined time intervals, an aliquot of the reaction mixture (10 μL) was sent for LC-MS analysis on Waters Autopurification System using a SunFire C18 HPLC column (50×4.6 mm with 5 μm diameter particles, Waters). Separation was achieved by gradient elution from 5% to 100% MeCN in water (constant 0.1 vol % formic acid) over 4 min, isocratic elution with 100% MeCN (with 0.1 vol % formic acid) from 4 to 8 min and returning to 5% MeCN in water (with 0.1 vol % formic acid) and equilibrated for 2 min. Selected ion chromatograms, with m/z=325 corresponding to [NAIA-5+H]^+, were extracted and analyzed by integrating the area under curve.
As fast-reacting probes are often susceptible to hydrolysis, we sought to investigate the aqueous stability of NAIA-C5 amide. […] Taking the excellent reaction kinetics and a mere 14% degradation in 30 min into account, NAIA-C5 amide was considered to be a useful tool in cysteine profiling (FIG. 17C and FIG. 17F).

HepG2 cell lysates = assay: Gel-based ABPP, in vitro Cys labeling of HepG2 cell lysates (in-gel fluorescence); type: biochemical
Experimental: In-Gel Fluorescence for Visualizing Cys Labeling by NAIAs and IAA In Vitro
HepG2 or 231MFP cells were lysed by probe sonication in DPBS, and cell debris were removed by centrifugation at 1,000 g for 5 min. Protein concentration of the lysates was determined by bicinchoninic acid (BCA) assay, and the lysates were then diluted to 2 mg/mL by DPBS. 50 μL of the lysates were incubated with indicated concentrations of NAIA-4, NAIA-5 or IAA for indicated time interval at room temperature. […] Samples were then separated by molecular weight on precast 4-20% TGX gels (Thermo Scientific) and scanned by ChemiDoc MP (Bio-Rad Laboratories, Inc) for measuring in-gel fluorescence. […]
With the in vitro characterization data in hand, we next moved to investigate the ability of NAIA in labeling functional cysteines in cell lysates and live cells. […] After the reaction, the protein mixture was resolved by sodium dodecyl sulphate-polyacrylamide gel electrophoresis (SDS-PAGE) and in-gel fluorescence was measured. […] The fluorescence intensity from these labeled protein bands can then reflect the degree of cysteine labeling by the probes. […]

C#CCCCCNC(=O)COc1ccc2c(ccn2C(=O)C=C)c1 [NAIA-5]
change of compound level in aqueous buffer solution over time (in words) ([1]; 10 μM, PBS/MeOH 4:1, room temperature): No significant changes in NAIA-5 level in the aqueous buffer solution over time | time stable in PBS solution ([1]; pH 7.4, absence of Cys): ≥ 3 h | cysteine labeling (in-gel fluorescence) compared with IAA, time-dependent (HepG2 cell lysates; 1 and 10 μM, 15 and 30 min): more cysteine labeling by NAIA-5 than IAA was found at 1 and 10 μM for both 15 and 30 min incubation | cysteine labeling (in-gel fluorescence) compared with IAA (HepG2 cell lysates; 1 h incubation, three doses): more cysteine labeling than IAA at all the three doses tested
